As a reminder, the IC50 is the concentration at which inhibition is half-maximal. A lower IC50 goes with greater potency.

One experiment has as its target T1, ADAM17 (Homo sapiens, UniProt P78536).
T1 construct: purchased R & D Systems (Minneapolis, MN, USA)
In words: ADAM17 enzyme assay with glycosylated substrate DM2. It counts as biochemical. The note with it: for selectivity against ADAM17 (in words): ADAM10 vs ADAM17. Here is the method: (§1) ADAM10 and ADAM17 assays. Both assays were performed as published previously by us. Briefly, both assays followed the same general protocol. In total, 5 μL of the 2× enzyme solution (20 nM) in an assay buffer (10 mM Hepes, 0.001% Brij-35, pH 7.5) were added to solid bottom black 384 plates (Nunc, ThermoFisher, Waltham, MA, USA, cat# 264705). Next, test compounds and pharmacological controls were added to the corresponding wells using a 384-pin tool device (V & P Scientific, San Diego, CA, USA). After 60 min of incubation at RT, the reactions were started via the addition of 5 μL of the 2× solutions of glycosylated substrate DM2 (20 μM). The reactions were incubated at RT for 2 h, after which the fluorescence was measured using a Biotek H1 multimode microplate imager (λexcitation = 360 nm, λemission = 460 nm). IC50 values were calculated by fitting normalized data to the sigmoidal log vs. the response equation utilizing a non-linear regression analysis from GraphPad Prizm 9.

Another experiment has as its target T2, ADAM10 (Homo sapiens, UniProt O14672).
T2 construct: purchased R & D Systems (Minneapolis, MN, USA)
T2 sequence (O14672 214-748): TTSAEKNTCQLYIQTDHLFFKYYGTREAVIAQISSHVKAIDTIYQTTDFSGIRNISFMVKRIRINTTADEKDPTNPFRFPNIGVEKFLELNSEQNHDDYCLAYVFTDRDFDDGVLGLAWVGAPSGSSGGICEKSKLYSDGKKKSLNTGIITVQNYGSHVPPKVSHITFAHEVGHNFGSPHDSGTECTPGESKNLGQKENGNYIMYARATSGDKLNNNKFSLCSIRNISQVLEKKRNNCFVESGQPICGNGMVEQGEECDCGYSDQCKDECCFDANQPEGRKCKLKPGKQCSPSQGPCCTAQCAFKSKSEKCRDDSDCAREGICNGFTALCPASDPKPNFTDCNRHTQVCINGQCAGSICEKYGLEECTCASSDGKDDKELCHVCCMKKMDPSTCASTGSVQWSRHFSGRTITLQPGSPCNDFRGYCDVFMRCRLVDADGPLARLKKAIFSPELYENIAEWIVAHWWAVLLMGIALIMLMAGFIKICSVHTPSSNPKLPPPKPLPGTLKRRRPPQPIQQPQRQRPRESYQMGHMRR
The experiment is described as follows: ADAM10 enzyme assay with glycosylated substrate DM2. The note with it: for activity against ADAM10 (in words): SAR discussion. Type of experiment: biochemical. The method, then: as §1

Another experiment has as its system IL-10. In words: RA serum marker ELISA, IL-10, CIA mice. Type of experiment: in vivo, C57 BL/6 mice. As to conditions: CID 3117694 50 mg/kg/day; indomethacin 2.5 mg/kg. Here is the method:
(§2) The sample size for therapeutic evaluation was calculated using power analysis based on experimental data from similar studies. In a two-sided test and setting the α value at 0.05 and desired power at 0.95, the sample size turned out to be 5 per group. We also expected deaths during the experiments; therefore, we used the formula Nt = N/1-q, where Nt is the number of mice initially used, N is the number required at the end of the study, and q is the proportion of attrition, which is generally 10%. Thus, at the end of the study period, we expected to have data from at least 6 mice per group, which is enough to attain statistical significance if it exists. Data were analyzed using a one-way ANOVA followed by Dunnett’s test compared with the vehicle control. At the end of the study, the mice were anesthetized and sacrificed using CO2 euthanasia. The hind paws of the mice were subjected to a histopathological examination, and the serum was analyzed for CRP, TNF-α, IL-6, and IL-10, as described in the below sections.
(§3) RA serum marker analysis. Blood was collected from the tail vein, and 100 µL was used for the assays. All assays were conducted using the manufacturer’s instructions for the respective assay kits. The following assay kits were purchased: Mouse TNF-α GENLISA™ ELISA (Krishgen BioSystems cat#KB2145, Mumbai, India), Mouse IL-10 GENLISA™ ELISA (Krishgen BioSystems cat#KB2072), Mouse hsC-Reactive Protein, hs-CRP GENLISA™ ELISA (Krishgen BioSystems cat#KLM0318), Mouse IL-6 GENLISA™ ELISA (Krishgen BioSystems cat#KB2068).
In general terms: An ELISA detects its analyte on a solid surface through an enzyme-linked reagent.

In another experiment the test system is C-reactive protein (CRP). In words: RA serum marker ELISA, CRP, CIA mice. The note with it: CID 3117694 50 mg/kg/day; indomethacin 2.5 mg/kg. It counts as in vivo, C57 BL/6 mice. The method, then: as §2, §3
For experiment [1], the system named is collagen-induced arthritis (CIA) model. The experiment is described as follows: CIA mouse model: clinical arthritis score and paw swelling. Type of experiment: in vivo, C57 BL/6 mice. As to conditions: indomethacin 2.5 mg/kg oral, scale 0–4. The method, then: In vivo efficacy in the CIA mouse model. All animal studies were conducted in accordance with NSU IACUC guidelines. Study protocol #2021.04.DM5 was approved by NSU IACUC before the commencement of the studies. CID 3117694 and indomethacin were ground with a small amount of the dispersing agent (0.5% HPMC (3 cP)–0.5% Tween 80) using a mortar and a pestle and mixed repeatedly to form a smooth paste. The paste was moved to a graduated cylinder and filled up to the required volume with the dispersing agent to form a suspension, as described elsewhere. The test compound (10, 30, and 50 mg/kg) and indomethacin (2.5 mg/kg) were administered with a mouse gavage needle (gauge no: 18, BD, catalog number: 653902) through the oral route as a suspension with a 5 mL/kg dose volume (from day 0 to day 28). In this study, 6–8-week-old C57 BL/6 mice from Charles River (male and female) were used. Animals were randomly assigned to one of the following six groups: (1) normal (non-RA control), (2) RA control untreated, (3) RA control treated with 2.5 mg/kg/day indomethacin, and 3 test groups (CID 3117694 (10 mg/kg/day, 30 mg/kg/day, and 50 mg/kg/day)) to provide an estimate for the lead compound’s efficacy range. Each group had three males and three females assigned to the control for gender-based differences. Arthritis was induced in the right paws of the mice under anaesthesia. The left paw of the mice was used as a control. A total of 10 µL collagen from bovine (type II collagen) nasal septum emulsion (2 mg/mL) was injected into the right knee joint with a glass Hamilton syringe and 25 G needles for intraarticular (i.a.) injection, followed by a total of 100 µL Complete Freund’s adjuvant (CFA) emulsion was injected at the back of mice using a syringe with 25 G needles subcutaneously (s.c.). On day 14 after the first injection, the mice were injected, i.e., with 10 µL of collagen from the bovine nasal septum ([…]) and s.c. with a 100 µL CFA emulsion for a boost injection. Arthritis progression was monitored using a clinical arthritis scoring system (0–4), and paw swelling was measured with the help of a plethysmograph on days 0, 14, 21, and 28 after the induction of arthritis. […] After the administration of a primary dose of collagen from the bovine nasal septum, CFA scoring was assessed. Measurements were taken on days 0, 14, 21, and 28 after the induction of arthritis in induced paws (right paw) and non-arthritis paws (left paw). CID 3117694 (10 mg/kg/day, 30 mg/kg/day, and 50 mg/kg/day) and pharmacological control (indomethacin 2.5 mg/kg/day) treatment were given every day for 28 days beginning from day 1 via oral gavage in hydroxy-propyl-methyl cellulose (HPMC) suspension.

A further experiment concerns TNFα. In words: RA serum marker ELISA, TNFα, CIA mice. As to conditions: CID 3117694 50 mg/kg/day; indomethacin 2.5 mg/kg. It counts as in vivo, C57 BL/6 mice. Here is the method:
as §2, §3

In the next experiment the test system is IL-6. In words: RA serum marker ELISA, IL-6, CIA mice. As to conditions: CID 3117694 50 mg/kg/day; indomethacin 2.5 mg/kg. It counts as in vivo, C57 BL/6 mice. The method, then: as §2, §3
In experiment [2] the test system is articular joints affected by RA. In words: Histopathology (H & E) of arthritic joint, CIA mice. Type of experiment: in vivo, C57 BL/6 mice. As to conditions: indomethacin 2.5 mg/kg/day. Here is the method:
as §2, with “sections. Histology. Limbs from euthanized animals were preserved in buffered formalin, decalcified, embedded, sectioned, and stained with hematoxylin and eosin (H & E). Microscopic images were acquired using the Lx 400 microscope (Labomed, Fremont, CA, USA).” for “sections.”

T1 sequence (P78536 215-824, species assumed): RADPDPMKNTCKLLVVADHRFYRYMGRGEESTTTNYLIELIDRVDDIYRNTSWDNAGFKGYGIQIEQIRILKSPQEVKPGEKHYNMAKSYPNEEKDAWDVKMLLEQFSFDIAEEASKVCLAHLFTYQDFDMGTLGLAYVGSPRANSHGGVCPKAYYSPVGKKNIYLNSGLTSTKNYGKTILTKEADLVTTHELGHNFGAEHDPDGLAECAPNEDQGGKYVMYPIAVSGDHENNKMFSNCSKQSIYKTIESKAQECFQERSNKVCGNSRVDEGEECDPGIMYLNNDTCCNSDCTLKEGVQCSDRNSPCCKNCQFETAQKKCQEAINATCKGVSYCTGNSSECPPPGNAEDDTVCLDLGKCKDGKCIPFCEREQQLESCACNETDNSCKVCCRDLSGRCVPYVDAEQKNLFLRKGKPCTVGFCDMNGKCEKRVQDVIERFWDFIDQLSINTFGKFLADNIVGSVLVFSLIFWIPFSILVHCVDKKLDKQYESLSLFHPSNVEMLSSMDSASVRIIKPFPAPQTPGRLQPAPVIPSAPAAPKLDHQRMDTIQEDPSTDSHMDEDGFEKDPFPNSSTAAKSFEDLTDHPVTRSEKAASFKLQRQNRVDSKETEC

Consider `CCc1ccc(NC(=O)C(=O)NNC(=O)c2ccc(C(C)(C)C)cc2)cc1` [CID 2113284], for which the IC50 at ADAM17 and against ADAM10 was > 100 µM each time.

As to `Cc1ccc(NC(=O)C(=O)NNC(=O)c2ccc(C(C)(C)C)cc2)cc1Cl` [CID 2213247], the IC50 against ADAM17 and at ADAM10 was > 100 µM throughout.

For `Cc1c(Cl)cccc1NC(=O)C(=O)NNC(=O)c1ccc(C(C)(C)C)cc1` [CID 2218294], the IC50 at ADAM17 and against ADAM10 was > 100 µM throughout.

Turning to `COc1ccccc1NC(=O)C(=O)NNC(=O)c1ccccc1Cl` [CID 2273473], on ADAM17, half-maximal inhibition (IC50) was put at 33 µM and the “selectivity against ADAM17 (in words)” value is listed as “no selectivity”. For the same molecule, on ADAM10, the IC50 was found to be 33 µM and the “activity against ADAM10 (in words)” value is given as “reduced affinity”.

As for `Cc1ccccc1C(=O)NNC(=O)C(=O)Nc1cccc2ccccc12` [CID 2841765], on ADAM17, half-maximal inhibition (IC50) required 2 µM and the “selectivity against ADAM17 (in words)” value was “selectivity against ADAM17 was lost”. For the same molecule, on ADAM10, the IC50 amounted to 2.8 µM and the “activity against ADAM10 (in words)” value is given as “retrieved the activity”.

For `Cc1ccccc1NC(=O)C(=O)NNC(=O)c1ccc(Cl)cc1` [CID 2869359], the IC50 at ADAM17 and against ADAM10 was > 100 µM throughout. Also, the “activity against ADAM10 (in words)” value on ADAM10 is given as “did not rescue the activity”.

In the case of `COc1ccc2c(c1)c(CC(=O)O)c(C)n2C(=O)c1ccc(Cl)cc1` [indomethacin, reference compound], the “IL-10 blood level vs healthy control” value in the experiment on IL-10 is reported as “the same as that of the healthy controls”. Moreover, the “CRP blood level vs healthy control” value in the experiment with C-reactive protein (CRP) was “the same as that of the healthy controls”. The disease score in experiment [1] (day 21) came to 2; in experiment [1] (day 28), 1. For the same molecule, the “TNFα blood level vs healthy control” value in the experiment on TNFα is on record as “the same as that of the healthy controls”. The “IL-6 blood level vs healthy control” value with IL-6 was “the same as that of the healthy controls”. Further, the “histopathological findings (in words)” value was “presence of inflammation and hyperplasia” in experiment [2]; “only residual inflammation and hyperplasia” in experiment [2] (listed as Indomethacin).

For the origin of these results see PMC10819767, “An ADAM10 Exosite Inhibitor Is Efficacious in an In Vivo Collagen-Induced Arthritis Model” (Pharmaceuticals, 2024).
